Experimental data as given in patent US20090247634A1, “Methods for identifying modulators of eoxin formation” (priority 2006, published 2009).
“And” between values parts separate entries of the source, which are not always exact repeats. Identical values can stand only once.

Key:
eosinophils [1] = test: Inhibitor studies on formation of Eoxin C4 and LTC4 in eosinophils; format: cell-based, human; settings: 2 min preincubation, A23187 (1 μM) and arachidonic acid, 5 min, 37° C.
Description: Isolated eosinophils (5-10×10^6/sample) were resuspended in phosphate buffered saline (1 ml/sample) and preincubated for 2 minutes in 37° C. prior to stimulation with Eox A4 (10 μM), LTA4 (10 μM) or both for 5 minutes in 37° C. Alternatively, for inhibitor studies, eosinophils were preincubated for 2 minutes in 37° C. in presence of BW70C (1 μM) or MK886 (10 μM) prior to stimulation with ionophore A23187 (1 μM) and arachidonic acid (40 μM) for 5 minutes in 37° C. The reactions were terminated by addition of three volumes of methanol. Metabolites were detected and quantified utilising Waters 996 photodiode array spectrophotometer connected to Waters 1996 HPLC system.

eosinophils [2] = test: Biosynthesis of 14,15-LTC4 and LTC4 in eosinophils (RP-HPLC); format: cell-based, human; settings: ionophore A23187 (1 μM), 5 min, 37° C.; one line per donor 1-11
Description: (§1) Human eosinophils contain abundant amounts of both 15-lipoxygenase and 5-lipoxygenase. […] The cells were incubated for five minutes at 37° C. and the amounts of 14,15-LTC4 and LTC4 were analyzed with RP-HPLC. […] Therefore, measurement of these metabolites is considered to reflect the total formation of 15-lipoxygenase derived cysteinyl-containing 14,15-leukotrienes and 5-lipoxygenase derived cysteinyl-containing leukotriens, respectively.
(§2) Isolated eosinophils (1-20×10^6/sample) were resuspended in phosphate buffered saline (1 ml/sample) and pre-incubated for 2 minutes in 37° C. (in presence or absence of indomethacin, 1 μM) prior to stimulation with ionophore A23187 (1 μM)/arachidonic acid (1 or 10 μM)/A23187 plus arachidonic acid/PGD2 (1 μM)/LTC4 (1 μM)/IL-5 (10 ng/ml)/14,15-LTC4 (10 μM) or 14,15-LTD4 (10 μM) for indicated time periods at 37° C. The incubations were terminated by addition of one volume of methanol (for analysis by RP-HPLC). For subsequent analysis by enzyme immunoassay (EIA), reactions were terminated by rapid cool off, 0° C., before centrifugation at 1200×g, 5 min. Supernatants were transferred to cryo tubes and stored in −70° C. until analyzed.
In order to get rid of cellular debris and proteins, centrifugation at 1200×g for 5 min. was performed. Supernatants were evaporated under reduced pressure and the residues resolved in methanol and transferred to a test tube. Samples were thereafter evaporated to dryness under a stream of nitrogen, and finally resuspended in 200 μl mobile phase (acetonitril:methanol:H20:acetic acid, 29:19:72:0.8, pH adjusted to 5.6 with NH3 for analysis of leukotrienes and 14,15-leukotrienes, and methanol:water:trifluoroacetic acid 70:30:0.007 for analysis of monohydroxy acids). The extracted samples were subjected to analysis in a reverse phase HPLC system as described. Briefly, samples were applied to a octadecyl reverse phase column (Chromabond ^18C, Macherey-Nagel, Duren, Germany) and elution rate was 1.2 ml/minute.

Hodgkin cell line L1236 = test: Inhibition of EoxC4 formation in the human cell line L1236; format: cell-based
Description: […] After pre-incubation with the test substance for 5 minutes, arachidonic acid (40 μM) was added. Incubation was stopped after 2 minutes with addition of one volume of methanol. Each test substance concentration was incubated in duplicate.
Cells and cell debris were removed by centrifugation (2600 rpm, 6 min) from the samples. The supernatant was diluted with water and then transferred to a washed and equilibrated extraction cartridge, Oasis HLB 1 cc 10 mg (Waters, Sweden). The metabolites were eluted with methanol and diluted with water before injected to the HPLC system.
RP-HPLC was performed on a Nova Pak C18 column (2.1×150 mm, Waters AB, Sweden). The initial mobile phase consists of 100% A (0.05% (8.7 mM) acetic acid, with pH adjusted to 5.6 with ammonium) at a flow rate at 0.4 mL/min. A linear gradient was started after five minutes to 36% B (60:40 acetonitrile:methanol) at 20 minutes. The mobile phase was than held isocratic at 64:36, A:B for another 20 minutes. Column effluent was monitored using diode array detection (PDA 996, Waters AB, Sweden) and UV spectra were acquired between 200-340 nm.
[…] Incubation and extraction was performed as described above.

neutrophils = test: Oxidative metabolism of neutrophils, lucigenin-enhanced chemiluminescence; format: cell-based, human
Description: (§3) Neutrophil and eosinophil granulocytes were purified from peripheral whole blood using a Percoll gradient and the magnetic cell separation system (MACS).
(§4) Granulocytes were primed for 30 minutes at 37° C. with either IL-5 (10.5 ng/mL) or GM-CSF (10.5 ng/mL) and subsequently stimulated with IL-5 (100 ng/mL), GM-CSF (100 ng/mL), LTB4 (10^−7M) or Eoxin (10^−8-10^−6M). Oxidative metabolism was measured by a lucigenin-enhanced chemiluminescence (CL) assay.

[3] = system: confluent bovine endothelium cells; test: Endothelial cell barrier function (TEER), Example 6a; format: cell-based; settings: for plasma leakage / change in TEER: 10^−7 and 10^−8 M; for potency relative to the most potent 5-lipoxygenase derived leukotrienes: FIG. 22
Description: Bovine aorta endothelial cells (BAEC) and human umbilical vein endothelial cells (HUVEC) were isolated and cultured with calf serum or human serum. BAEC or HUVEC in the first to fifth passages were detached by brief (2 min) trypsin-EDTA treatment (0.25% trypsin/0.01% EDTA) and replated onto 3.0 μm pore size polycarbonate filters (Tissue Culture inserts, 10 mm; NUNC, Roskilde, Denmark) or, for the purpose of visual inspection, 0.2 μm pore size Anopore inorganic membrane (transparent when wet). In order to promote cellular differentiation and enhance attachment of EC, the filters were pretreated with 50 μl Biomatrix 1 (167 μg/ml) and air-dried. EC were seeded at a density of 2×10^5 cells per filter and incubated in culture medium at 37° C. in a humidified atmosphere of 5% CO2 in air. The EC were grown to confluent monolayers, as assessed by daily microscopic observation, in transparent 0.2 μm pore size filters and measurement of the electrical resistance across the monolayer. Under these experimental conditions maximal resistance is obtained at day 7 postseeding, at which day the EC monolayers were then used in the experiments.
Rapid changes in endothelial cell (EC) barrier function in response to various arachidonic acid metabolites were analysed through continuous registration of transendothelial electrical resistance (TEER) with electrodes on each side of EC monolayer^18. For measurement of TEER, the filter insert with ECs was transferred to a resistance measurement chamber (Endohm-12, World Precision Instruments, Sarasota, Fla., USA) modified so as to assure exact positioning of the electrodes in relation to each other and to the filter insert daring repeated measurements. The chamber (low compartment) and the filter insert (upper compartment) were filled with 2 ml and 400 μl culture medium, respectively. All measurements were made at 37° C. with the equipment placed in a cell culture incubator. Direct readings of the electrical resistance were given by an ohmmeter (Evom, World Precision Instruments, Sarasota, Fla., US) connected to the electrodes of the resistance chamber. The electrical resistance of individual EC monolayers was obtained by subtracting the resistance of the corresponding naked filter coated with Biomatrix as measured prior to seeding of the EC. Thus, TEER values represent the resistance of the EC monolayer solely and depend on the development of tight junctions between adjoining endothelial cells.

[4] = Non-enzymatic metabolism during incubation at 37° C.; format: physicochemical; settings: 60 min incubation at 37° C.
Description: In order to analyze if eosinophils can metabolize 14,15-LTC4 to 14,15-LTD4 and 14,15-LTE4, eosinophils were incubated with synthetic 14,15-LTC4 or 14 (R)-cysteinyl-glycyl-15(S)-hydroxy-5,8,10,12(Z,Z,E,E)-eicosatetraenoic acid (14,15-LTD4) for 60 min at 37° C. The metabolites formed were analyzed with product ion scan at 497.2 m/z for 14,15-LTD4 and 440.2 m/z for 14,15-LTE4. The retention time and mass spectrum of a product formed (Metabolite 2) from 14,15-LTC4 were identical to synthetic 14,15-LTD4 (FIG. 30B), and a product formed (Metabolite 3) after incubation with 14,15-LTD4 had identical retention time and mass spectrum as synthetic 14 (R)-cysteinyl-15(S)-hydroxy-5,8,10,12(Z,Z,E,E)-eicosatetraenoic (14,15-LTE4) (FIG. 30C). […] (data not shown). Basically, the product ion mass spectra of 14,15-leukotrienes and corresponding 5-lipoxygenase derived cysteinyl-leukotrienes are almost identical. However, 14,15-leukotrienes form a fragment at 205 m/z, whereas the corresponding fragment in 5-lipoxygenase derived cysteinyl-leukotrienes is at 189 m/z (FIG. 31). These collision induced dissociation products are probably formed by a cleavage next to the carbon where the cysteinyl group is positioned, which is at carbon 14 for 14,15-leukotrienes and carbon 6 for leukotrienes.

eosinophils [5] = test: Oxidative metabolism of eosinophils, lucigenin-enhanced chemiluminescence; format: cell-based, human
Description: as §3, §4

eosinophils [6] = test: Metabolism in eosinophils after 5 min of incubation
Description: as §1

eosinophils [7] = test: Receptor mediated activation of 14,15-LTC4 biosynthesis in eosinophils (EIA); format: cell-based, human; settings: LTC4 (1 μM), PGD2 (1 μM) or IL-5 (10 ng/ml), 5 min, 37° C.
Description: A possible receptor mediated activation of 14,15-LTC4 formation was investigated by using the allergen induced mast cell mediators LTC4 and prostaglandin (PG) D2 as well as IL-5, which is a potent eosinophil activator. Isolated eosinophils (10×10^6/sample) were incubated for 5 min, at 37° C. with LTC4 (1 μM), PGD2 (1 μM) or IL-5 (10 ng/ml). Leukotriene C4, PGD2 and IL-5 all induced release of 14,15-LTC4 from eosinophils after 5 min of incubation (table 2).
as §2
Supernatants were diluted in EIA buffer and analyses were performed according to the manufacturer's protocol. The optical density (OD) from the EIA determinations was used to calculate % B/B0 according to the relationship: […]

CC(/C=C/c1cccc(Oc2ccc(F)cc2)c1)N(O)C(N)=O (stereo not shown) [BW70C]
LTC4 peak (LTC4 formation) (eosinophils [1]; BW70C 1 μM): totally abolished

CNc1ccc2oc(C[C@H]3O[C@@]4(CC[C@H]3C)O[C@H]([C@H](C)C(=O)c3ccc[nH]3)[C@H](C)C[C@H]4C)nc2c1C(=O)O [Compound A23187]
14,15-LTC4 (eosinophils [2]): 0 pmol/10^7 | LTC4 (eosinophils [2]): 198 pmol/10^7 and 494 pmol/10^7 and 82 pmol/10^7 and 108 pmol/10^7 and 64 pmol/10^7 and 326 pmol/10^7 and 170 pmol/10^7 and 30 pmol/10^7 and 264 pmol/10^7 and 50 pmol/10^7 and 40 pmol/10^7

CCCCCC#CCC#CCC#CCC#CCCCC(=O)O [ETYA, Eicosatetraynoic acid]
formation of EoxC4 (Hodgkin cell line L1236; ETYA 10^−4-4 M, FIG. 26): completely blocked | formation of EoxD4 (Hodgkin cell line L1236; ETYA 10^−4-4 M, FIG. 26): completely blocked | formation of EoxC4 (Hodgkin cell line L1236; ETYA 10^−5-5 M): decreased | formation of EoxD4 (Hodgkin cell line L1236; ETYA 10^−5-5 M): decreased

CCCCC[C@H](O)[C@@H](/C=C/C=C/C=C\C/C=C\CCCC(=O)O)SC[C@H](N)C(=O)NCC(=O)O [EoxD4, 14 (R)-cysteinyl-glycyl-15 (S)-hydroxy-5,8,10,12 (Z,Z,E,E)-eicosatetraenoic acid]
radical production by GM-CSF primed neutrophils (neutrophils; GM-CSF (10.5 ng/mL) primed, Eoxin 10^−8-10^−6M): induced the radical production by primed cells in a dose-dependent manner | responders (neutrophils; GM-CSF primed neutrophils): 7-10 subjects of 13 | plasma leakage / change in TEER [3]: induce significant plasma leakage | potency relative to the most potent 5-lipoxygenase derived leukotrienes [3]: about five to ten times less potent | non-enzymatic metabolism [4]: no non-enzymatic metabolism

CCCCC[C@H](O)[C@@H](/C=C/C=C/C=C\C/C=C\CCCC(=O)O)SC[C@H](N)C(=O)O [EoxE4, 14 (R)-cysteinyl-15 (S)-hydroxy-5,8,10,12 (Z,Z,E,E)-eicosatetraenoic acid]
radical production by IL-5 primed eosinophils (eosinophils [5]; IL-5 (10.5 ng/mL) primed, Eoxin 10^−8-10^−6M): broad dose-related induction of the radical production | responders (eosinophils [5]; IL-5 primed eosinophils): 3 of 6 subjects | plasma leakage / change in TEER [3]: induce significant plasma leakage | potency relative to the most potent 5-lipoxygenase derived leukotrienes [3]: about five to ten times less potent

CCCCC/C=C\C\C=C/C=C/C=C/[C@@H](SC[C@H](NC(=O)CC[C@H](N)C(=O)O)C(=O)NCC(=O)O)[C@@H](O)CCCC(=O)O [LTC4, leukotriene C4]
metabolism in eosinophils (eosinophils [6]): almost no metabolism | 14,15-LTC4 (eosinophils [7]): 56.2 ± 42.5 pg/10^7 cell

CC(C)c1ccc2c(c1)c(SC(C)(C)C)c(CC(C)(C)C(=O)O)n2Cc1ccc(Cl)cc1 [MK886]
EoxC4 synthesis (eosinophils [1]; MK886 10 μM): blocked

CCCCC[C@H](O)/C=C/[C@H]1C(=O)C[C@H](O)[C@@H]1C/C=C\CCCC(=O)O [PGD2, prostaglandin D2]
14,15-LTC4 (eosinophils [7]): 43.8 ± 16.9 pg/10^7 cell

GM-CSF: the cytokine GM-CSF, a known activator of the oxidative metabolism
oxygen free radical production by non-primed neutrophils (neutrophils; non-primed blood neutrophils, GM-CSF 100 ng/mL, LTB4 10^−7M, Eoxin 10^−8-10^−6M): induced the oxygen free radical production

IL-5: IL-5, which is a potent eosinophil activator
14,15-LTC4 (eosinophils [7]): 131 ± 4.9 pg/10^7 cell
